Test results taken from USRE48461E1, “Modulation of androgen receptor expression” (Ionis Pharmaceuticals, Inc., priority 2012, dated 2021).
Oligonucleotides are written 5' to 3', each unit as a sugar letter and its base; * is a phosphorothioate linkage, no mark a phosphodiester; rarer units and linkages stand in square brackets, end groups in braces. Plain capitals give the bases only. k = constrained ethyl (cEt); [5mC] = 5-methylcytosine; d = 2'-deoxy (DNA)

Legend:
AR mRNA [1] = experiment: Dose-dependent antisense inhibition of human AR in HuVEC cells (electroporation, qRT-PCR RTS3559, IC50); assay type: cell-based; details: Table 36, HuVEC, electroporation, approximately 16 hours
Method in brief: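 HuVEC cells dosed with antisense oligonucleotides by electroporation and treated approximately 16 hours. AR mRNA quantified by real-time qPCR with primer probe set RTS3559 and normalised to total RNA by RIBOGREEN; IC50 from dose-response.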

AR mRNA [2] = experiment: Antisense inhibition of human AR in HuVEC cells, single concentration (electroporation, qRT-PCR RTS3559); assay type: cell-based
Method in brief: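 HuVEC cells electroporated with antisense oligonucleotides at a single concentration. AR mRNA quantified by qRT-PCR using human primer-probe set RTS3559 and normalised to total RNA content by RIBOGREEN.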

[3] = Table 25, 1,000 nM oligonucleotide, electroporation, approximately 24 hours, relative to untreated control
[4] = Table 27, 1,000 nM oligonucleotide, electroporation, approximately 24 hours, relative to untreated control
[5] = Table 28, 1,000 nM oligonucleotide, electroporation, approximately 24 hours, relative to untreated control

Substance	percent inhibition of AR, 46.9 nM (AR mRNA [1])	percent inhibition of AR, 187.5 nM (AR mRNA [1])	percent inhibition of AR, 750.0 nM (AR mRNA [1])	percent inhibition of AR, 3000.0 nM (AR mRNA [1])	IC50 (AR mRNA [1])	% inhibition (AR mRNA [2]; [3])	% inhibition (AR mRNA [2]; 1,000 nM ASO, ~24 h, Table 26)	% inhibition (AR mRNA [2]; [4])	% inhibition (AR mRNA [2]; [5])
584233 (kG*kG*kA*dT*dT*d[5mC]*dT*d[5mC]*dT*dA*d[5mC]*dA*d[5mC]*kA*k[5mC]*kA; antisense) [compound 584233]	0%	30%	66%	86%	0.39 µM	62%			
584242 (k[5mC]*k[5mC]*kA*dT*dT*dT*dG*dT*dG*d[5mC]*d[5mC]*dA*dA*kA*k[5mC]*k[5mC]; antisense) [compound 584242]	12%	38%	66%	93%	0.27 µM	62%			
584245 (kA*kG*kG*dT*dT*dA*dG*dG*dG*dA*dG*dT*dA*kG*kG*k[5mC]; antisense) [compound 584245]	4%	33%	69%	90%	0.32 µM	70%			
584263 (kT*kA*kG*dG*dG*dT*dT*dT*dG*dG*dT*d[5mC]*dA*kG*kA*kA; antisense) [compound 584263]	9%	24%	67%	90%	0.34 µM	56%			
584274 (kG*kT*kT*dA*dT*d[5mC]*dT*dT*dA*d[5mC]*dT*d[5mC]*dT*k[5mC]*k[5mC]*k[5mC]; antisense) [compound 584274]	17%	36%	74%	93%	0.23 µM	70%			
584329 (kG*kG*kT*dT*dA*dT*dG*dG*dT*dT*d[5mC]*dT*dG*kT*k[5mC]*kT; antisense) [compound 584329]	0%	17%	67%	86%	0.46 µM		58%		
584361 (k[5mC]*kT*kT*d[5mC]*dA*dT*dT*dG*d[5mC]*dA*dG*dG*dT*k[5mC]*kT*kG; antisense) [compound 584361]	0%	18%	71%	87%	0.41 µM		61%		
584469 (kT*kT*kT*dG*dG*dT*dA*dA*d[5mC]*dA*dT*dT*dA*kG*kG*k[5mC]; antisense) [compound 584469]	13%	46%	73%	89%	0.22 µM			74%	63%
584495 (kA*kT*kG*dG*dT*dT*dG*dT*d[5mC]*d[5mC]*dT*dG*dT*kA*k[5mC]*kA; antisense) [compound 584495]	0%	14%	55%	74%	0.65 µM			58%	53%
